We go through two molecules from patent US20250255847A1, “[…]s: Novel Drugs for Triple Negative Breast Cancer” (SIMMARON RSEARCH INC, priority 2024, published 2025).

For data set [1], the system named is HMEC cells. Briefly: Annexin V/PI staining in HMEC cells. The data set is classed as cell-based. The settings on record: 25 nM. As to the method: FIG. 11 illustrates an embodiment of the present invention and illustrates SIM-1 and SIM-2 induced apoptosis in MDA-MB-468 TNBC cells, but not HMEC control cells. MDA-MB-468 cells were treated with increasing doses of (A) SIM-1 and (B) SIM-2 for 48 hrs followed by lactate dehydrogenase (LDH) release assay in the supernatants. The result was offset with cell-bound LDH and presented as a percent of DMSO control as discussed under method section. Half-maximal cytotoxicity or CT50 analyses were performed plotting maximum response as an index of increasing doses of (C) SIM-1 and (D) SIM-2. AnnexinV (green) and propidium iodide (red) dual-labeling were performed to evaluate apoptotic response in MDA-MB-468 cells once treated with increasing doses of (E) SIM-1 and (F) SIM-2 for 24 hrs. Nuclei were stained with DAPI. TUNEL assay was performed in MDA-MB-468 cells after treatment with 25 nM of (G) SIM-1. Brown-colored TUNEL bodies were visualized at cresyl violet-stained blue nuclei. (H) The number of TUNEL bodies were counted as a percent of 100 cresyl violet-stained blue cells. Ten independent images were counted for the quantification study. Similarly, SIM-2 was assessed for (I) TUNEL and (J) subsequent quantification analyses. One-way ANOVA was performed to test the significance of mean between groups at **p<0.01 and ****p<0.0001. […]

Data set [2] addresses T1, STAT3 (pY705, pS727) (Homo sapiens, UniProt P40763).
T1 construct: endogenous in cells; host or cells: MDA-MB-468
Kind of data set: JAK/STAT phospho antibody array, phospho-STAT3 in EGF-treated MDA-MB-468 cells. It counts as cell-based. The settings on record: EGF (25 ng) + 5 nM compound, 6 hrs. How it is done: FIG. 5 illustrates an embodiment of the present invention and illustrates evaluations of SIM-1 and SIM-2 as STAT3 inhibitors. (A) Protein thermal shift assay was performed to assess the melting of purified recombinant STAT3 (blue; 0.5 μg protein) (Tm=melting temperature=68.88° C.). The representative melting curves were derived after adding SIM-1 (red; 4 nM), SIM-2 (purple; 8 nM), and positive control stattic (grey; 20 nM) to the STAT3 protein. The differences of melting temperature (ΔTm) between pure protein and protein+ligands are −4.54° C., −4.16° C., and 0.39° C. for SIM-1, SIM-2, and stattic (ΔTm^cut-off>2° C.). […] Each colored arrowhead represents a specific phosphoprotein, and the description was added in the bottom of array images. […] Similarly, full-length STAT5b protein melting was assessed with (J) SIM-1, (K) SIM-2, and (L) stattic. […]
Protein array. […] After that, cells were scrapped with 1×TBS, lysed with lysis buffer supplemented with protease and phosphatase inhibitor cocktail, measured for total protein concentration ([…]), diluted 5 times with assay diluent buffer and then applied along with biotin-labeled probes on the glass membrane coated with antibodies. […]
Next, the present invention evaluated if these compounds as disclosed in the present invention as small-molecule inhibitors targeting STAT3 activation, inhibited the activation of STAT3, but not other STATs. […]

T1 sequence (P40763 whole entry): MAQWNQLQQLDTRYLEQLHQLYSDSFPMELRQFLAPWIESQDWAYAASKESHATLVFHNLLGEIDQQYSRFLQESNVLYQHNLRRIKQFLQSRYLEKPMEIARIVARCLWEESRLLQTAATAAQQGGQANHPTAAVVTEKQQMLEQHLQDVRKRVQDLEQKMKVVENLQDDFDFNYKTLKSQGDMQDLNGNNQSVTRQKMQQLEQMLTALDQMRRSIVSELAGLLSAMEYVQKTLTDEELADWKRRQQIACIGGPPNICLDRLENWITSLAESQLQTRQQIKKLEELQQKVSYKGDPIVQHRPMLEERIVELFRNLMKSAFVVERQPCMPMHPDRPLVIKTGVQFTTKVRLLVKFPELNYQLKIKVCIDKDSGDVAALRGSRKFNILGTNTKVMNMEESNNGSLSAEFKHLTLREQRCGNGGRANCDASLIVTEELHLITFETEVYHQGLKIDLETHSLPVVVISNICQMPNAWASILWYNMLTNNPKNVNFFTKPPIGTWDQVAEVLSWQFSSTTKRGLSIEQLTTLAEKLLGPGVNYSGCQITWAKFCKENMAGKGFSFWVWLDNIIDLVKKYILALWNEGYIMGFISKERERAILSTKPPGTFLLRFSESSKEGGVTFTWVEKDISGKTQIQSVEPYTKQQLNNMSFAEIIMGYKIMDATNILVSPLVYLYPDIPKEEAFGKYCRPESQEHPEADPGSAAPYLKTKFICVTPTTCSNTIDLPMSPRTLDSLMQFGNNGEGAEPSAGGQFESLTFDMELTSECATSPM

Regarding `O=C(O)CCC(=O)NCc1csc2ccc(Cl)cc12` [SIM-1, 4-[(5-chloro-1-benzothiophen-3-yl)methylamino]-4-oxobutanoic acid], in data set [1], the “apoptosis in healthy normal cells (annexin V/PI)” value was “unable to induce apoptosis”. In data set [2], the “levels of pY705 STAT3” value was “strongly and selectively suppressed”.

`CCOC(=O)c1c(NC(C)=O)sc2c(Cl)c(/C=N/O)ccc12` [SIM-2, ethyl 2-acetamido-7-chloro-6-(hydroxyiminomethyl)-1-benzothiophene-3-carboxylate]: in data set [1], the “apoptosis in healthy normal cells (annexin V/PI)” value is on record as “unable to induce apoptosis”. Moreover, the “levels of pY705 STAT3” value in data set [2] is “strongly and selectively suppressed”.
